{"source": "patent US20150099002A1", "about": "“MEANS AND METHODS FOR ENHANCING WEIGHT GAIN IN POULTRY” (Nutrinia Ltd., priority 2007, published 2015)", "origin": "cited, not measured here", "system": "Cobb male chicks", "conditions": "through drinking water or feed, high amounts, at least 21 days", "data": [{"substance": "insulin: insulin provided to chicks through drinking water or feed in WO 2005/115473", "values": [{"measurement": "weight gain compared to same feed without insulin", "value": "higher weight gain"}]}]}
